# Assay results published in patent publication US20250090540A1, “PI3K-ALPHA INHIBITORS AND METHODS OF USE THEREOF” (Relay Therapeutics, Inc., priority 2021, published 2025).
# Molecular target: H1047R PIK3CA enzyme (Homo sapiens, UniProt P42336, H1047R)
# Assay: ADP-Glo Biochemical PIK3CA Kinase Assay
# Settings: ADP-Glo biochemical PIK3CA kinase assay
# Chain of H1047R PIK3CA enzyme (P42336 whole entry H1047R): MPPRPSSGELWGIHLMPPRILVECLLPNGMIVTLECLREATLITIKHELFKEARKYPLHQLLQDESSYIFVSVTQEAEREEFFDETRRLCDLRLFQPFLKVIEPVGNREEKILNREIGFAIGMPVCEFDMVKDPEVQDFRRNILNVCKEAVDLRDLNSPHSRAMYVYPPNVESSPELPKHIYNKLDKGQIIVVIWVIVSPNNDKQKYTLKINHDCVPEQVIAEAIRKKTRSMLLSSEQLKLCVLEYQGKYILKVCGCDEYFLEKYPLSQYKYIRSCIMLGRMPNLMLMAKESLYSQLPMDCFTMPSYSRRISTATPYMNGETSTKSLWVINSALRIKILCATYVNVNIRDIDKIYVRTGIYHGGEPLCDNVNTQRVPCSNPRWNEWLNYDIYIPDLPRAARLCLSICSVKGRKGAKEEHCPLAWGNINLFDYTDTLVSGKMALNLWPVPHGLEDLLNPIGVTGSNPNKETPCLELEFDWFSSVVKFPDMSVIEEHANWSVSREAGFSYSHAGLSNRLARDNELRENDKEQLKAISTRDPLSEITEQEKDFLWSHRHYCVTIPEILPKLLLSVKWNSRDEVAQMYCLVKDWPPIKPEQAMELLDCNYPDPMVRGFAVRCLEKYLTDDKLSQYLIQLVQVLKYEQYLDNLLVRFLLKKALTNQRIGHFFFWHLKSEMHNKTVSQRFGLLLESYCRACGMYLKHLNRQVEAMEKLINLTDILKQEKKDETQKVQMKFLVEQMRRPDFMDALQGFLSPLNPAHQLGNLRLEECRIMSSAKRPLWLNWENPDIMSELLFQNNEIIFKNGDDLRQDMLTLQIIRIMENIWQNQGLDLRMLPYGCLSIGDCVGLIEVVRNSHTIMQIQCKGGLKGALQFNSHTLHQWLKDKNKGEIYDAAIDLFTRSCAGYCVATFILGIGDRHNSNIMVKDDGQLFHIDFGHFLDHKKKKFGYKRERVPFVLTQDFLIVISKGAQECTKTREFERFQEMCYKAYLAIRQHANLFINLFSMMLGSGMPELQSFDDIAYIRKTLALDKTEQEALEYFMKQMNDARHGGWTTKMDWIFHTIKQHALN
# Chain of H1047R PIK3CA enzyme (P27986 whole entry partner): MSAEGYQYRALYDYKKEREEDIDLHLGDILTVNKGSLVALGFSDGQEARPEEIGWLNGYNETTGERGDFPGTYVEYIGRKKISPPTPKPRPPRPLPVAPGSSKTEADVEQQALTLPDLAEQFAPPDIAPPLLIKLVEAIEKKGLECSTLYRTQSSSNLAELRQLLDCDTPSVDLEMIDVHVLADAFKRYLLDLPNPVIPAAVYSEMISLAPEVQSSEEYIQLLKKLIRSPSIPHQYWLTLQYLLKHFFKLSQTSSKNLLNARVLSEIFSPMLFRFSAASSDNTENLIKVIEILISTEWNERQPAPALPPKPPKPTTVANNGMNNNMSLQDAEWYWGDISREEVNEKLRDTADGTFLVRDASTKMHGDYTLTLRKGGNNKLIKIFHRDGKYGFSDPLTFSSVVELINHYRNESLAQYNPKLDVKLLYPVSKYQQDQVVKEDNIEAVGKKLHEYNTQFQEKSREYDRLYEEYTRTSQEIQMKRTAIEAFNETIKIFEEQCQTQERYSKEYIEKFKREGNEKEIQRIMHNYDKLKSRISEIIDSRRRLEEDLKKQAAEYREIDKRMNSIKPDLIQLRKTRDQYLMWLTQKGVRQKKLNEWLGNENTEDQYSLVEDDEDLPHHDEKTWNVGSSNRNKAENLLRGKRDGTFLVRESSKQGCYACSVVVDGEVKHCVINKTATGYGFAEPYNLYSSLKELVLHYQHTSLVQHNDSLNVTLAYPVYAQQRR
row,Structure (SMILES),IC50 [nM]
1,Cc1ccccc1Nc1ncc(C(=O)N2CC(C)(C#N)C2)cc1NC(=O)c1csc2ccccc12 [I-543],1000 to 10000
2,Cc1ccccc1Nc1c(NC(=O)c2csc3ccccc23)ccn(C)c1=O [I-548],1000 to 10000
3,COc1ccc(SC2(C(=O)O)CC(=O)NC2c2ccccc2C)cc1 (stereo not drawn) [I-549],1000 to 10000
4,CNC(=O)c1cnc(NCCC#N)c(NC(=O)c2cc(F)cc(C(F)(F)F)c2)c1 [I-550],1000 to 10000
5,Cc1ccccc1Nc1c(NC(=O)c2csc3ccccc23)ccc2cc[nH]c12 [I-552],1000 to 10000
6,Cc1ccccc1Nc1nnccc1NC(=O)c1csc2ccccc12 [I-553],1000 to 10000
7,Cc1ccccc1Nc1ncc(C(=O)N[C@@H]2C3CCC(C3)[C@H]2C(=O)O)cc1NC(=O)c1csc2ccccc12 (stereo partly drawn) [I-559],1000 to 10000
8,Cc1ccccc1Nc1ncc(C(=O)NCC2(O)CCCC2)cc1NC(=O)c1csc2ccccc12 [I-562],500 to 1000
9,Cc1ccccc1Nc1ncc(C(=O)NC2CCN(C)C2)cc1NC(=O)c1csc2ccccc12 (stereo not drawn) [I-574],1000 to 10000
10,Cc1ccccc1Nc1ncc(C(=O)N2CC3(COC3)C2)cc1NC(=O)c1csc2ccccc12 [I-576],1000 to 10000
11,Cc1ccccc1Nc1ncc(C(=O)NCc2ncccn2)cc1NC(=O)c1csc2ccccc12 [I-586],500 to 1000
12,Cc1ccccc1Nc1ncc(C(=O)N2CCC(C)(O)C2)cc1NC(=O)c1csc2ccccc12 (stereo not drawn) [I-589],1000 to 10000
13,Cc1ccccc1Nc1ncc(C(=O)N2CC(C(=O)O)C2)cc1NC(=O)c1csc2ccccc12 [I-600],1000 to 10000
14,Cc1cc(CC(C)NC(=O)c2cnc(Nc3ccccc3C)c(NC(=O)c3csc4ccccc34)c2)on1 (stereo not drawn) [I-614],1000 to 10000
15,COCC1CN(C(=O)c2cnc(Nc3ccccc3C)c(NC(=O)c3csc4ccccc34)c2)C1 [I-615],1000 to 10000
16,Cc1ccccc1Nc1ncc(C(=O)N[C@H]2CC[C@]3(CCC(=O)N3)CC2)cc1NC(=O)c1csc2ccccc12 [I-617],1000 to 10000
17,Cc1ccccc1Nc1ncc(C(=O)N2CC(C)(O)C2)cc1NC(=O)c1csc2ccccc12 [I-620],1000 to 10000
18,Cc1ccccc1Nc1ncc(C(=O)N2CCC(F)C2)cc1NC(=O)c1csc2ccccc12 (stereo not drawn) [I-623],500 to 1000
19,Cc1ccccc1Nc1ncc(C(=O)N2CC(CF)C2)cc1NC(=O)c1csc2ccccc12 [I-628],1000 to 10000
20,Nc1cc(C(=O)NC2CS(=O)(=O)C2)cnc1N1CCOc2ccccc21 [I-630],1000 to 10000
21,O=C(O)c1cnc(N2CCOc3ccccc32)c(NC(=O)c2csc3ccccc23)c1 [I-631],1000 to 10000
22,Nc1cc(C(=O)O)cnc1N1CCOc2ccccc21 [I-632],1000 to 10000
23,O=C(NC1CC(F)(F)C1)c1cnc(Nc2ccccc2Cl)c(NC(=O)c2csc3ccccc23)c1 [I-641],1000 to 10000

row,Structure (SMILES),IC50 [nM]
1,Nc1ncc(C(=O)O)cc1NC(=O)c1csc2ccccc12 [I-673],1000 to 10000
2,COC(=O)c1cnc(N)c(NC(=O)c2csc3ccccc23)c1 [I-674],1000 to 10000
3,Nc1ncc(C(=O)NC2CC(F)(F)C2)cc1NC(=O)c1csc2ccccc12 [I-675],1000 to 10000
4,Nc1ncc(C(=O)N[C@H]2C[C@@H](C(N)=O)C2)cc1NC(=O)c1csc2ccccc12 [I-689],1000 to 10000
5,CC(NC(=O)c1cnc(N)c(NC(=O)c2csc3ccccc23)c1)c1cn[nH]c1 (stereo not drawn) [I-690],1000 to 10000
6,Cc1ccccc1Nc1ncc(C(=O)N[C@H]2C[C@@H](C(=O)N(C)C)C2)cc1NC(=O)c1csc2ccccc12 [I-694],1000 to 10000
7,Cc1ccccc1Nc1ncc(C(=O)NCc2ncccn2)cc1NC(=O)c1cc(F)cc(C(F)(F)F)c1 [I-719],1000 to 10000
8,COC(=O)CCS(=O)(=O)c1cnc(Nc2ccccc2C)c(NC(=O)c2cc(F)cc(C(F)(F)F)c2)c1 [I-728],1000 to 10000
9,CNC(=O)c1cnc(Nc2nccc3[nH]ccc23)c(NC(=O)c2csc3ccccc23)c1 [I-729],1000 to 10000
10,CNC(=O)c1cnc(Nc2ncccc2C(C)C)c(NC(=O)c2csc3ccccc23)c1 [I-731],1000 to 10000
11,CNC(=O)c1cnc(Nc2c3c(nn2C)CCCC3)c(NC(=O)c2csc3ccccc23)c1 [I-732],1000 to 10000
12,CNC(=O)c1cnc(Nc2ccc3c(c2)COC3)c(NC(=O)c2csc3ccccc23)c1 [I-733],1000 to 10000
13,CCc1nccnc1Nc1ncc(C(=O)NC)cc1NC(=O)c1csc2ccccc12 [I-734],1000 to 10000
14,CNC(=O)c1cnc(Nc2ccc3cnn(C)c3c2)c(NC(=O)c2csc3ccccc23)c1 [I-736],1000 to 10000
15,CNC(=O)c1cnc(Nc2ccc3c(c2)OCC3)c(NC(=O)c2csc3ccccc23)c1 [I-738],1000 to 10000
16,CNC(=O)c1cnc(Nc2ccc3cccnc3c2)c(NC(=O)c2csc3ccccc23)c1 [I-740],1000 to 10000
17,CNC(=O)c1cnc(Nc2cncc3ccccc23)c(NC(=O)c2csc3ccccc23)c1 [I-741],1000 to 10000
18,CNC(=O)c1cnc(Nc2ncccc2C2CC2)c(NC(=O)c2csc3ccccc23)c1 [I-742],1000 to 10000
19,CNC(=O)c1cnc(Nc2c3c(nn2C)CCC3)c(NC(=O)c2csc3ccccc23)c1 [I-743],1000 to 10000
20,CNC(=O)c1cnc(Nc2ccc3c(c2)N(C)C(=O)CO3)c(NC(=O)c2csc3ccccc23)c1 [I-744],1000 to 10000
21,Cc1ccccc1Nc1ncc(C(=O)NCc2nnc3ccccn23)cc1NC(=O)c1cc(F)cc(C(F)(F)F)c1 [I-759],1000 to 10000
22,Cc1ccccc1Nc1ncc(-c2ccn[nH]2)cc1NC(=O)c1cc(F)cc(C(F)(F)F)c1 [I-767],1000 to 10000
23,Cc1ccccc1Nc1cc(=O)n(CCc2ccncn2)cc1NC(=O)c1csc2ccccc12 [I-769],1000 to 10000

# Continued, values first:
row,IC50 [nM],Structure (SMILES)
1,10000 to 100000,CNC(=O)c1cnc(Nc2ccccc2C)c(NC(=O)CCc2cc(Br)ccc2F)c1 [I-542]
2,1000 to 10000,CNC(=O)c1cnc(Nc2ccccc2C)c(NC(=O)c2csc3cncnc23)c1 [I-551]
3,1000 to 10000,CNC(=O)c1cnc(Nc2ccccc2C)c(NC(=O)c2nc(Cl)cc3ccccc23)c1 [I-555]
4,1000 to 10000,CNC(=O)c1cnc(Nc2ccccc2C)c(NC(=O)c2cc(C)cc(C#N)c2)c1 [I-556]
5,1000 to 10000,CNC(=O)c1cnc(Nc2ccccc2C)c(NC(=O)Cc2cc3cccnc3cc2F)c1 [I-557]
6,1000 to 10000,CNC(=O)c1cnc(Nc2ccccc2C)c(NC(=O)Cc2ccc3ncccc3c2)c1 [I-558]
7,1000 to 10000,Cc1ccccc1Nc1ncc(C(=O)NCC(C)(C)O)cc1NC(=O)c1csc2ccccc12 [I-565]
8,1000 to 10000,CNC(=O)c1cnc(Nc2ccccc2C)c(NC(=O)c2cccc(F)c2Cl)c1 [I-566]
9,1000 to 10000,CNC(=O)c1cnc(Nc2ccccc2C)c(NC(=O)c2ccc(CO)c(F)c2)c1 [I-567]
10,500 to 1000,CNC(=O)c1cnc(Nc2ccccc2C)c(NC(=O)c2ccc3ncc(Br)n3c2)c1 [I-575]
11,1000 to 10000,CNC(=O)c1cnc(Nc2ccccc2C)c(NC(=O)c2cccc(COC)c2)c1 [I-577]
12,1000 to 10000,CNC(=O)c1cnc(Nc2ccccc2C)c(NC(=O)Cc2cc(Cl)cc(C(F)(F)F)c2)c1 [I-587]
13,1000 to 10000,CNC(=O)c1cnc(Nc2ccccc2C)c(NC(=O)Cc2cc(Br)ccc2Cl)c1 [I-595]
14,1000 to 10000,Cc1ccccc1Nc1ncc(C(=O)Nc2ncnn2C)cc1NC(=O)c1csc2ccccc12 [I-606]
15,1000 to 10000,Cc1ccccc1Nc1ncc(C(=O)O)cc1NC(=O)c1csc2ccccc12 [I-629]
16,1000 to 10000,CNC(=O)c1cnc(Nc2ccccc2C)c(NC(=O)c2nc3cccc(C(F)(F)F)n3n2)c1 [I-642]
17,1000 to 10000,CNC(=O)c1cnc(Nc2ccccc2C)c(NC(=O)CCc2ccncc2C)c1 [I-643]
18,1000 to 10000,CNC(=O)c1cnc(Nc2ccccc2C)c(NC(=O)c2onc3ccccc23)c1 [I-644]
19,1000 to 10000,CNC(=O)c1cnc(Nc2ccccc2C)c(NC(=O)c2ccc3cnccc3n2)c1 [I-645]
20,1000 to 10000,CNC(=O)c1cnc(Nc2ccccc2C)c(NC(=O)Cn2ccccc2=O)c1 [I-646]
21,1000 to 10000,CNC(=O)c1cnc(Nc2ccccc2C)c(NC(=O)c2ccn3ccnc3c2)c1 [I-647]

row,IC50 [nM],Structure (SMILES)
1,1000 to 10000,CNC(=O)c1cnc(Nc2ccccc2C)c(NC(=O)c2ccc3cnccc3c2)c1 [I-648]
2,1000 to 10000,CNC(=O)c1cnc(Nc2ccccc2C)c(NC(=O)C2CCc3ccccc3O2)c1 (stereo not drawn) [I-649]
3,1000 to 10000,CNC(=O)c1cnc(Nc2ccccc2C)c(NC(=O)c2ccnc(C(F)F)c2)c1 [I-650]
4,1000 to 10000,CNC(=O)c1cnc(Nc2ccccc2C)c(NC(=O)Cc2noc3ccccc23)c1 [I-651]
5,1000 to 10000,CNC(=O)c1cnc(Nc2ccccc2C)c(NC(=O)c2noc3ccccc23)c1 [I-671]
6,500 to 1000,Cc1ccccc1Nc1ncc(C(=O)NCc2ccc(Cl)cc2)cc1NC(=O)c1cc(F)cc(C(F)(F)F)c1 [I-702]
7,1000 to 10000,COc1cncc(CNC(=O)c2cnc(Nc3ccccc3C)c(NC(=O)c3cc(F)cc(C(F)(F)F)c3)c2)c1 [I-707]
8,500 to 1000,CNC(=O)c1cnc(Nc2ccccc2C)c(NC(=O)c2ccc(C#N)c(C(F)(F)F)c2)c1 [I-710]
9,500 to 1000,CNC(=O)c1cnc(Nc2ccccc2C)c(NC(=O)c2cc(F)c(C(F)(F)F)c(F)c2)c1 [I-717]
10,1000 to 10000,COc1ccnc(CNC(=O)c2cnc(Nc3ccccc3C)c(NC(=O)c3cc(F)cc(C(F)(F)F)c3)c2)c1 [I-720]
11,1000 to 10000,CNC(=O)c1cnc(Nc2ccccc2C)c(NC(=O)c2ccc(F)c(F)c2)c1 [I-722]
12,1000 to 10000,CNC(=O)c1cnc(Nc2ccccc2C)c(NC(=O)c2ccc(C)c(F)c2)c1 [I-723]
13,1000 to 10000,CNC(=O)c1cnc(Nc2cnccc2C)c(NC(=O)c2csc3ccccc23)c1 [I-730]
14,1000 to 10000,CCn1nccc1Nc1ncc(C(=O)NC)cc1NC(=O)c1csc2ccccc12 [I-735]
15,1000 to 10000,CNC(=O)c1cnc(Nc2ccnc3c2ccn3C)c(NC(=O)c2csc3ccccc23)c1 [I-737]
16,1000 to 10000,CNC(=O)c1cnc(Nc2cncc(F)c2)c(NC(=O)c2csc3ccccc23)c1 [I-739]
17,1000 to 10000,Cc1ccccc1Nc1ncc(C(=O)NCc2cn(C)nc2C)cc1NC(=O)c1cc(F)cc(C(F)(F)F)c1 [I-746]
18,500 to 1000,CNC(=O)c1cnc(Nc2ccccc2C)c(NC(=O)c2cc(Cl)nc(C(F)(F)F)c2)c1 [I-762]
19,500 to 1000,CNC(=O)c1cnc(Nc2ccccc2C)c(NC(=O)c2coc3c(F)cc(Cl)cc23)c1 [I-766]
20,500 to 1000,CNC(=O)c1cnc(Nc2cccc3[nH]ccc23)c(NC(=O)c2csc3ccccc23)c1 [I-768]
